Read-outs that look alike come from different tables or passages of the source.
What was measured:
A549 cells = assay: Cell proliferation PAD assay, A549; format: cell-based; settings: Homo sapiens, 48 hours
How it was run: (§1)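 Plate 2,000 cells per well, then add compound after 24 h as duplicate 6.3-fold dilutions, with 10 mM master stock diluted 500-fold on transfer. Grow 48 h at 37 °C in 5% CO2, fix with formamide, stain nuclei with DAPI, and count cells by imaging.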

TRAF6/Uev1A/Ubc13 = molecular target: T1, TRAF6/Uev1A/Ubc13 (Homo sapiens, UniProt Q9Y4K3); assay: TRAF6/Uev1A/Ubc13 plate-based ubiquitin ligase assay; format: biochemical
T1 sequence (Q9Y4K3 1-522): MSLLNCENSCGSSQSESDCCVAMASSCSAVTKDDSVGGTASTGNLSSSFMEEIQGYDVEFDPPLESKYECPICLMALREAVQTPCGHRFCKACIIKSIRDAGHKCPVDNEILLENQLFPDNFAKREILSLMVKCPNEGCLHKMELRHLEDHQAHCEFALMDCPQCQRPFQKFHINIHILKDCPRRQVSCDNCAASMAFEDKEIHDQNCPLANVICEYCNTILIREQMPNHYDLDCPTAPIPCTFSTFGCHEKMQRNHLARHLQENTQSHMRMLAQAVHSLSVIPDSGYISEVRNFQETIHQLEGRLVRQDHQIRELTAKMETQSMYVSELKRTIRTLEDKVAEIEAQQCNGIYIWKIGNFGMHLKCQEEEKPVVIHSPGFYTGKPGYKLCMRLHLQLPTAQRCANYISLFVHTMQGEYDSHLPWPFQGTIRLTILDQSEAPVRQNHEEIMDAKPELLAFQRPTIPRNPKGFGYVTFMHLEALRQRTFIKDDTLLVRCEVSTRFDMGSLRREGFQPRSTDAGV
How it was run: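 Ligase activity was read as luminescence from anti-Flag/HRP detection of Flag-ubiquitin bound to casein-blocked Ni-plates alongside His-ubiquitin after a 1 h room-temperature reaction. Buffer: 62.5 mM Tris pH 7.5, 6.25 mM MgCl2, 1.0 mM DTT, 2 μM ATP; E1, Uev1a/Ubc13 and TRAF6 added last to start. IC50s derived across compound concentrations.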

H1299 cells = assay: Cell proliferation PAD assay, H1299; format: cell-based; settings: Homo sapiens, 48 hours
How it was run: as §1

[1] = NCI-H1299, 3pt, read-out: H1299 3pt
[2] = NCI-H1299, 6pt, read-out: H1299 6pt

Compound | IC50 (A549 cells; 3pt, read-out: A549 3pt) [µM] | IC50 (A549 cells; 6pt, read-out: A549 6pt) [µM] | IC50 (TRAF6/Uev1A/Ubc13) [µM] | IC50 (H1299 cells; [1]) [µM] | IC50 (H1299 cells; [2]) [µM]
O=S(=O)(c1ccc(Cl)c2nonc12)N1CCN(c2ncccn2)CC1 [compound 184, 4-chloro-7-[(4-pyrimidin-2-ylpiperazin-1-yl)sulfonyl]-2,1,3-benzoxadiazole] | 1 to 20 | ≥ 20 | ≥ 20 | 1 to 20 | ≥ 20
O=S(=O)(c1ccc(Cl)c2nonc12)N1CCN(c2ccccc2)CC1 [compound 186, 4-chloro-7-[(4-phenylpiperazin-1-yl)sulfonyl]-2,1,3-benzoxadiazole] | 1 to 20 | 1 to 20 | ≥ 20 | 1 to 20 | < 1
O=c1[nH]c2ccccc2n1C1CCN(S(=O)(=O)c2ccc(Cl)c3nonc23)CC1 [compound 188, 1-{1-[(7-chloro-2,1,3-benzoxadiazol-4-yl)sulfonyl]piperidin-4-yl}-1,3-dihydro-2H-benzimidazol-2-one] | 1 to 20 | ≥ 20 | ≥ 20 | 1 to 20 | < 1
CC1CC(C)CN(S(=O)(=O)c2ccc(Cl)c3nonc23)C1 (centres unmarked) [compound 192, 4-chloro-7-[(3,5-dimethylpiperidin-1-yl)sulfonyl]-2,1,3-benzoxadiazole] | 1 to 20 | ≥ 20 | ≥ 20 | 1 to 20 | ≥ 20
N#CC1(c2ccccc2)CCN(S(=O)(=O)c2ccc(O)c3nonc23)CC1 [compound 199, 1-[(7-hydroxy-2,1,3-benzoxadiazol-4-yl)sulfonyl]-4-phenylpiperidine-4-carbonitrile] | 1 to 20 | ≥ 20 | ≥ 20 | 1 to 20 | ≥ 20
O=S(=O)(c1c(Cl)ccc2nonc12)N1CCN(c2cnccn2)CC1 [compound 200, 5-chloro-4-[(4-pyrazin-2-ylpiperazin-1-yl)sulfonyl]-2,1,3-benzoxadiazole] | 1 to 20 | ≥ 20 | ≥ 20 | 1 to 20 | < 1
CC(=O)N1CCN(S(=O)(=O)c2c(Cl)ccc3nonc23)CC1 [compound 201, 4-[(4-acetylpiperazin-1-yl)sulfonyl]-5-chloro-2,1,3-benzoxadiazole] | 1 to 20 | ≥ 20 | ≥ 20 | 1 to 20 | < 1
Cc1cccc(N2CCN(S(=O)(=O)c3c(Cl)ccc4nonc34)CC2)n1 [compound 202, 5-chloro-4-{[4-(6-methylpyridin-2-yl)piperazin-1-yl]sulfonyl}-2,1,3-benzoxadiazole] | 1 to 20 | < 1 | ≥ 20 | 1 to 20 | < 1
N#Cc1ccc(N2CCN(S(=O)(=O)c3c(Cl)ccc4nonc34)CC2)nc1 [compound 209, 6-{4-[(5-chloro-2,1,3-benzoxadiazol-4-yl)sulfonyl]piperazin-1-yl}nicotinonitrile] | 1 to 20 | < 1 | 1 to 20 | 1 to 20 | < 1
CC(=O)N1CCN(S(=O)(=O)c2c(Sc3cccc4cccnc34)ccc3nonc23)CC1 [compound 214, 8-({4-[(4-acetylpiperazin-1-yl)sulfonyl]-2,1,3-benzoxadiazol-5-yl}thio)quinoline] | 1 to 20 |  | 1 to 20 | 1 to 20 | 
O=S(=O)(Nc1ccc2cn[nH]c2c1)c1ccc(Cl)c2nonc12 [compound 220, 7-chloro-N-1 H-indazol-6-yl-2,1,3-benzoxadiazole-4-sulfonamide] | 1 to 20 | 1 to 20 | ≥ 20 | 1 to 20 | 1 to 20
O=S(=O)(c1ccc(Sc2ccc(O)cc2)c2nonc12)N1CCC(Oc2ncccn2)CC1 [compound 226, 4-[(7-{[4-(pyrimidin-2-yloxy)piperidin-1-yl]sulfonyl}-2,1,3-benzaxadiazol-4-yl)thio]phenol] |  | 1 to 20 | 1 to 20 |  | 1 to 20
CC1(C)CCN(S(=O)(=O)c2c(Cl)ccc3nonc23)CC1 [compound 245, 5-chloro-4-[(4,4-dimethylpiperidin-1-yl)sulfonyl]-2,1,3-benzoxadiazole] |  | ≥ 20 | 1 to 20 |  | < 1
O=S(=O)(Nc1ccc(F)c(F)c1)c1ccc(Cl)c2nonc12 [compound 262, 7-chloro-N-(3,4-difluorophenyl)-2,1,3-benzoxadiazole-4-sulfonamide] | 1 to 20 |  | ≥ 20 | 1 to 20 | 
O=S(=O)(Nc1cccc(F)c1)c1ccc(Cl)c2nonc12 [compound 263, 7-chloro-N-(3-fluorophenyl)-2,1,3-benzoxadiazole-4-sulfonamide] | 1 to 20 |  | ≥ 20 | 1 to 20 | 
Cc1cc(C)cc(-c2cccc3nonc23)c1 [compound 285, 4-(3,5-Dimethylphenyl)-2,1,3-benzoxadiazole] | ≥ 20 | ≥ 20 | ≥ 20 | ≥ 20 | 
Cc1cc(C)cc(-c2ccc([N+](=O)[O-])c3nonc23)c1 [compound 286, 4-(3,5-Dimethylphenyl)-7-nitro-2,1,3-benzoxadiazole] | 1 to 20 | ≥ 20 | ≥ 20 | 1 to 20 | < 1
O=[N+]([O-])c1ccc(-c2cccc(C(F)(F)F)c2)c2nonc12 [compound 309, 4-Nitro-7-[3-(trifluoromethyl)phenyl]-2,1,3-benzoxadiazole] |  | 1 to 20 | 1 to 20 |  | 1 to 20
Cc1cccc(-c2ccc([N+](=O)[O-])c3nonc23)c1 [compound 310, 4-(3-Methylphenyl)-7-nitro-2,1,3-benzoxadiazole] |  | < 1 | ≥ 20 |  | < 1
CC(C)(C)c1ccc(-c2ccc([N+](=O)[O-])c3nonc23)cc1 [compound 313, 4-(4-Tert-butylphenyl)-7-nitro-2,1,3-benzoxadiazole] |  | < 1 | 1 to 20 |  | < 1
COc1cccc(-c2ccc([N+](=O)[O-])c3nonc23)c1F [compound 314, 4-(2-Fluoro-3-methoxyphenyl)-7-nitro-2,1,3-benzoxadiazole] |  | 1 to 20 | 1 to 20 |  | 1 to 20
O=S(=O)(Nc1ccc2cn[nH]c2c1)c1c(O)ccc2nonc12 [compound 339, 5-hydroxy-N-(1H-indazol-6-yl)2,1,3-benzoxadiazole-4-sulfonamide] |  | ≥ 20 | ≥ 20 |  | ≥ 20
O=S(=O)(c1c(N2CCC(Oc3ccccc3C(F)(F)F)CC2)ccc2nonc12)N1CCC(Oc2ccccc2C(F)(F)F)CC1 [compound 340, 5-[4-(2-{trifluoromethyl}phenoxy)piperidin-1-yl]-4-{[4-(2-{trifluoromethyl}phenoxy)piperidin-1-yl]sulfonyl}-2,1,3-benzoxadiazole] |  | 1 to 20 | ≥ 20 |  | 1 to 20
COc1cc(NS(=O)(=O)c2ccc(Cl)c3nonc23)c(OC)cc1Cl [compound 341, 7-chloro-N-(4-chloro-2,5-dimethoxyphenyl)-2,1,3-benzoxadiazole-4-sulfonamide] |  | 1 to 20 | ≥ 20 |  | 1 to 20
COc1cc(Nc2ccc(S(=O)(=O)Nc3cc(OC)c(Cl)cc3OC)c3nonc23)c(OC)cc1Cl [compound 342, N-(4-chloro-2,5-dimethoxyphenyl)-7-([4-chloro-2,5-dimethoxyphenyl]amino)-2,1,3-benzoxadiazole-4-sulfonamide] |  | 1 to 20 | 1 to 20 |  | < 1
COc1cc(NS(=O)(=O)c2c(Cl)ccc3nonc23)c(OC)cc1Cl [compound 343, 5-chloro-N-(4-chloro-2,5-dimethoxyphenyl)-2,1,3-benzoxadiazole-4-sulfonamide] |  | 1 to 20 | ≥ 20 |  | 1 to 20
COc1cc(Nc2ccc3nonc3c2S(=O)(=O)Nc2cc(OC)c(Cl)cc2OC)c(OC)cc1Cl [compound 344, N-(4-chloro-2,5-dimethoxyphenyl)-5-([4-chloro-2,5-dimethoxyphenyl]amino)-2,1,3-benzoxadiazole-4-sulfonamide] |  | ≥ 20 | ≥ 20 |  | ≥ 20
